Like-named read-outs stand apart in the source and are kept apart here.
Experiments:
[1] = test system: β-amyloid pathology in Tg2576 mice; conditions: diet 8 weeks, lithium 2.25 mmol/kg/day, Li2CO3 vs control NIH31 diet
Method: All mice received normal drinking water ad libitum. […] Mouse brain tissue sections and homogenates were prepared from each mouse after treatment. Half-brain coronal sections were analyzed by Aβ antibody 4G8 staining (FIG. 14A). Percentage of 4G8 positive plaques (mean±SD) was quantified by image analysis (28, 29) (FIG. 14B). Total soluble and insoluble Aβ40,42 peptides from homogenates were analyzed by ELISA, and represented as picograms of Aβ peptides per mg of total protein (FIG. 14C).

Aβ40,42 peptides = conditions: N2a/APPwt cells, LISPRO 0, 2.5, 5 and 10 mM, 12 h
From the text: (§1) FIGS. 1A and 1B. […] The cell lysates were routinely prepared from these cells for Western blot (WB) analysis.

Notch processing = conditions: N2a/APPwt/Notch-ΔE cells, 0, 2.5, 5 and 10 mM, 5 hours, compared to DFK-167
From the text: as §1

[2] = test system: Mouse primary microglial cells; experiment: Autophagy (LC3B staining) in mouse primary microglial cells; assay type: cell-based; conditions: 10 mM, 18 hours
From the text: FIG. 8. […] The fluorescence intensity of the autophagosomes and the cytosol were quantified using SLIDEBOOK™ digital microscopy software.
The fluorescence intensity of the autophagosomes and the cytosol were quantified using Slidebook™ digital microscopy software (mean±SD) (FIG. 19).

cytokines and sCD40L = conditions: Tg2576 mice, oral, diet 8 weeks, 2.25 mmol/kg/day
From the text: In addition, spleens from these mice were isolated and splenocytes cultured as described previously (30).

3XTg-AD mice = conditions: chow 4 months
From the text: In order to reduce potential lithium toxicity in the kidney, a saline bottle will be provided in addition to water in all cages. Behavior of animals in these groups and in non-transgenic untreated wild-type mice will be evaluated after treatment, with a established behavioral battery which measures multiple cognitive domains, including open field, novel object recognition, radial arm water maze, and contextual and cued fear conditioning (42-46).
The behavioral battery will include the Balance Beam Task, to evaluate vestibular and general motor function and account for any problems that may occur with the rest of the tests due to motor (and not behavioral/cognitive) impairment.

[3] = test system: Human neural stem cells (H9-Derived); experiment: Human neuronal stem cell differentiation (MAP2, GFAP); assay type: cell-based; conditions: 10 mM, 14 days
From the text: Human neural stem cells (H9-Derived) were obtained from Life technologies and cultured with StemPro® NSC SFM media. […] DAPI was used to detect nuclear DNA. Confocal images were taken by Olympus Fluoview™ FV1000 laser scanning confocal microscope (FIG. 18A).

GSK3β [4] = experiment: GSK3β phosphorylation Western blot in human renal proximal tubule (HRPT) cells; assay type: cell-based; conditions: 0 to 30 mM, 12 hours
[5] = test system: primary microglia isolated from 3XTg-AD mice; conditions: microglia from older 3XTg-AD mice treated at minimum dose, vs Li2CO3 or control diet
From the text: The inventors will fully examine microglial pro-inflammatory MAPK, NF-kB and CD40 signaling pathways, cytokine secretion, Aβ phagocytosis capacity, markers of M1 or M2 phenotype and microglial autophagy (IMPase) ex vivo via immunohistochemistry, WB, RT-PCR and Flow analysis in primary microglia isolated from these mice. These methods and assays have been well established as previously published (56, 73, 75). The culturing of primary microglial cells from young and aged mice has been routinely conducted (28, 29, 73).

N2a cells = experiment: Neuronal cell differentiation of N2a cells (β-tubulin III, phospho-synapsin I); assay type: cell-based, mouse; conditions: 10 mM, 24 hours
Method: FIGS. 5A-5C. […] These cells were then permeabilized with 0.05% Triton X-100 for 5 minutes, washed and stained with mouse anti-β-tubulin III monoclonal antibody ([…]™) and rabbit anti-phospho-Synapsin I (Ser^62, Ser^67) polyclonal antibody (EMD Millipore) overnight at 4° C. […] Confocal images were taken by Olympus fluoview FV1000 laser scanning confocal microscope (Tokyo, Japan).
These cells were then permeabilized with 0.05% Triton X-100 for 5 min, washed, and stained with mouse anti-β-tubulin III monoclonal antibody ([…]™) and rabbit anti-phospho-synapsin I (Ser^62, Ser^67) polyclonal antibody (EMD Millipore) overnight at 4° C. […] Confocal images were taken by Olympus Fluoview™ FV1000 laser scanning confocal microscope (Tokyo, Japan) (FIG. 5A).

GSK3β [6] = conditions: 12 hours
Method: FIGS. 2A and 2B. […] Cell lysates were prepared and subjected to WB analysis with specific anti-phospho-GSK3β (Ser9) and total GSK3β antibodies. […] WB results are representative of three independent experiments.
WB results are representative of three independent experiments.

primary microglial cells = test system: primary microglial cells
Method: FIGS. 4A-4C. […] Data are represented as mean percentage of CD40 expressing cells (±SD). […] Microglial cell culture supernatants were collected and subjected to cytokine ELISA as indicated. Data were represented as mean pg of TNFα or IL-12p70 per mg of total cellular protein (±SD). […] Cellular supernatants and lysates were analyzed for extracellular (top panel) and cell-associated (bottom panel) FITC-Aβ42 using a fluorometer. Data are represented as the relative fold of mean fluorescence change (mean±SD), calculated as the mean fluorescence for each sample at 37° C. divided by mean fluorescence at 4° C.
Data are represented as mean percentage of CD40-expressing cells (±SD) (FIG. 4A). […] Microglial cell culture supernatants were collected and subjected to cytokine ELISA as indicated. Data are represented as mean pg of TNFα or IL-12p70 per mg of total cellular protein (±SD) (FIG. 4B). […] Cellular supernatants and lysates were analyzed for extracellular (top panel) and cell-associated (bottom panel) FITC-Aβ42 using a fluorometer (FIG. 4C). Data are represented as the relative fold of mean fluorescence change (mean±SD), calculated as the mean fluorescence for each sample at 37° C. divided by mean fluorescence at 4° C.

[7] = test system: Murine neuronal stem cells; experiment: Murine neuronal stem cell differentiation (MAP2, total tau, phospho-synapsin I); assay type: cell-based, mouse; conditions: 10 mM, 4 days
Method: FIGS. 6A-6F. […] These cells were then permeabilized, washed and stained with mouse anti-MAP2 monoclonal antibody (EMD Millipore) or mouse anti-total tau (tau46) antibody overnight at 4° C. […] Confocal images were taken by Olympus fluoview FV1000 laser scanning confocal microscope. […] DAPI staining (Life Technologies) was used to detect nuclear DNA. Confocal images were taken by Olympus Fluoview™ FV1000 laser scanning confocal microscope (FIG. 17A). […] The band density ratios of MAP2 to β-actin, total tau to β-actin, and phospho-synapsin I to β-actin are presented as mean±S.D (FIGS. 17B-1, 17B-2, and 17B-3, respectively).

Substance: Lithium Salicylate Proline [LISPRO]
- β-amyloid pathology (4G8 positive Aβ plaques in brain sections) [1]: Reduces β-Amyloid Pathology
- Aβ40, Aβ42 peptides secreted in cell culture media (Aβ generation) (Aβ40,42 peptides): reduces Aβ generation
- Notch cleavage (WB, c-myc and cleaved Notch antibodies) (Notch processing): did not inhibit Notch cleavage
- difference in fluorescence intensity of autophagosomes and cytosol versus Li2CO3 ([2]; P>0.05): no significance difference
- autophagy (LC3B fluorescence intensity of autophagosomes and cytosol) ([2]; vs PBS control): significant enhancement of autophagy
- anti-inflammatory/Th2 responses (cytokine ELISA) (cytokines and sCD40L): Promotes Anti-Inflammatory/Th2 Responses
- sCD40L in the CNS (brain homogenate ELISA) (cytokines and sCD40L): Decreases sCD40L
- effectiveness on abolishing AD-like cognitive impairment (3XTg-AD mice): more effective than equimolar doses of Li2CO3
- long-term and short-term memory impairment (behavioral battery) (3XTg-AD mice; prophylactic and therapeutic groups): will reverse or abolish long-term and short-term memory impairment
- human neuronal stem cell differentiation (MAP2, GFAP) [3]: Enhances Human Neuronal Stem Cell Differentiation
- GSK3β activity / GSK3β (Ser9) phosphorylation (WB) (GSK3β [4]): Markedly Reduces GSK3β Activity
- microglial M2 phenotype ex vivo [5]: will strongly preserve an M2 phenotype
- neuronal cell differentiation (β-tubulin III, phospho-synapsin I) (N2a cells): Markedly Promotes Neuronal Cell Differentiation
- phosphorylated GSK3β (Ser9) level (WB) (GSK3β [6]; SH-SY5Y cells): notably elevated
- phosphorylated GSK3β (Ser9) level (WB) (GSK3β [6]; primary neuronal cells): notably elevated
- microglial phagocytosis of Aβ (FITC-Aβ42, extracellular and cell-associated) (primary microglial cells; 10 mM pre-treatment 6 hours, 1 μM aged FITC-Aβ42 1 hour): Enhances Microglial Phagocytosis of Aβ
- IFNγ-induced CD40 expression (FACS, percentage of CD40-expressing cells) (primary microglial cells; 8 hours co-treatment): significant dose-dependent decreases
- pro-inflammatory microglial activation induced by IFNγ and CD40 signaling (FACS, TNFα and IL-12p70 ELISA) (primary microglial cells; IFNγ or/and CD40L 1 μg/mL, 8 hours): Inhibits Microglial Activation-Induced by IFNγ and CD40 Signaling
- murine neuronal stem cell differentiation (MAP2, total tau, phospho-synapsin I) [7]: Enhances Murine Neuronal Stem Cell Differentiation

From patent publication US9603869B2, “Lithium co-crystals and an additional neuropsychiatric agent for treatment of neuropsychiatric disorders” (UNIVERSITY OF SOUTH FLORIDA, priority 2015, dated 2017)
